Test results reported in article PMC5642477, “Phosphodiesterase 10A is overexpressed in lung tumor cells and inhibitors selectively suppress growth by blocking β-catenin and MAPK signaling” (Oncotarget, 2017).
Like-named read-outs stand apart in the source and are kept apart here.

Tests used:
[1] = tested on: HOP62 cells; test: Growth assay (Cell Titer Glo); format: cell-based, human; settings: for IC50: Homo sapiens, HOP-62, HOP62, 72 hours, 5% serum, read-out: Growth inhibition IC50
Protocol: (§1) Cells were plated in half area 96-well microtiter plates (Corning) at a density of 3, 000 cells per well. For drug treatment, cells were treated with compound or DMSO as vehicle (final concentration at 0.2%). For siRNA assays, cells were transfected with siRNAs under the same condition as described above. The effect of treatment on cell growth was measured using the Cell Titer Glo (CTG) assay (Promega) as specified by the measurement of viable cells based on ATP content after 72 hours standard culture. All growth assay involving NSCLCs and NHAECs were performed in the presence of 5% serum.
(§2) Drug effects on cell growth and IC50 values were determined as described previously. All experiments were repeated a minimum of three times to determine the reproducibility of the results. All error bars represent standard error of the mean (SEM). Statistical analysis was performed using Student’s t test or other as indicated. A P value of <0.05 was considered statistically significant.

[2] = tested on: HOP-92 cells; test: Growth assay (Cell Titer Glo); format: cell-based; settings: Homo sapiens; HOP-92, 72 hours; read-out: Growth inhibition IC50
Protocol: as §1, §2

[3] = tested on: H522 cells; test: Growth assay (Cell Titer Glo); format: cell-based; settings: Homo sapiens, NCI-H522; H522, 72 hours; read-out: Growth inhibition IC50
Protocol: as §1, §2

[4] = tested on: H322M cells; test: Growth assay (Cell Titer Glo); format: cell-based; settings: Homo sapiens, NCI-H322M, 72 hours, read-out: Growth inhibition IC50
Protocol: as §1, §2

[5] = tested on: A549 cells; test: Growth assay (Cell Titer Glo); format: cell-based; settings: Homo sapiens; A549, 72 hours, 5% serum; read-out: Growth inhibition IC50
Protocol: as §1, §2

[6] = tested on: EKVX cells; test: Growth assay (Cell Titer Glo); format: cell-based; settings: Homo sapiens, 72 hours, read-out: Growth inhibition IC50
Protocol: as §1, §2

[7] = tested on: H460 cells; test: Growth assay (Cell Titer Glo); format: cell-based; settings: Homo sapiens, NCI-H460; H460, 72 hours, 5% serum; read-out: Growth inhibition IC50
Protocol: as §1, §2

[8] = tested on: H23 cells; test: Growth assay (Cell Titer Glo); format: cell-based; settings: Homo sapiens, NCI-H23; H23, 72 hours; read-out: Growth inhibition IC50
Protocol: as §1, §2

[9] = tested on: H226 cells; test: Growth assay (Cell Titer Glo); format: cell-based; settings: Homo sapiens, NCI-H226; H226, 72 hours; read-out: Growth inhibition IC50
Protocol: as §1, §2

[10] = tested on: HOP62 cells (shCTL vector control); test: Colony formation assay; format: cell-based, human
Protocol: (§3) The transient knockdown of PDE10 in NSCLC cells by PDE10-specific siRNA and scramble siRNA control was performed using RNAiMAX reagent (Invitrogen) as previously described. Effects of siRNA on NSCLC cell growth and PDE10 expression levels were measured after 72 hours of treatment. For a stable knockdown of PDE10, GIPZ lentiviral short hairpin RNA (shRNA) vectors targeting human PDE10, nonsilencing GPIZ lentiviral control vector, and transduction kit were purchased from Open Biosystems. Lentiviral particles of shRNA were produced in HEK293T cells (ATCC) according to the manufacturer’s instructions. HOP62 NSCLC cells were transfected by the lentivirus particles followed by puromycin (5 μg/mL) selection. Stable expression cell lines with shRNA of PDE10 (shPDE10) or lentiviral vector control (shCTL) were obtained by limited dilution for single cell clone and confirmed by Western blotting.
(§4) For colony formation assays, 200 viable cells were plated in 6-well tissue culture plates and were cultured in RPMI medium supplemented with 5% serum. DMSO (0.2%) as the vehicle and different concentrations of PQ10 were added to the cell culture medium for 14 days of treatment. Colonies were counted after staining with crystal violet as previously described.

[11] = tested on: HOP62 PDE10 knockdown cells (shPDE10); test: Colony formation assay; format: cell-based, human
Protocol: as §3, §4

[12] = tested on: PKG activation in H1299 cells; test: Western blotting, PKG activation (pSer239-VASP); format: cell-based, human
Protocol: (§5) Whole cell extraction was performed according to a previously described method using cell lysing buffer (Cell Signaling) supplemented with 10 mmol/L NaF for protein phosphorylation studies. Cell lysates were separated by 4-12% gradient, 7% or 10% pre-casting PAGE (Novex/Invitrogen) followed by electrophoretic transfer to a nitrocellulose membrane. Western blotting procedures were performed using Chemiluminescence Reagent (Pierce) and visualized using Chemi Doc Imaging System (BioRad).

[13] = tested on: human lung tumor cells; test: Growth assay (Cell Titer Glo), lung tumor cell panel; format: cell-based
Protocol: as §1, §2

[14] = tested on: HOP62 PDE10 knockdown cells (shPDE10); test: Growth assay (Cell Titer Glo); format: cell-based, human; settings: shPDE10, PQ10 2 µmol/L
Protocol: as §3
as §1, with “All growth assay involving NSCLCs and NHAECs were performed in the presence of 5% serum.” left out

[15] = molecular target: PDE2A (Homo sapiens, UniProt O00408); test: IMAP fluorescence polarization PDE assay, recombinant PDE isozymes; format: biochemical
Sequence of PDE2A (O00408 whole entry): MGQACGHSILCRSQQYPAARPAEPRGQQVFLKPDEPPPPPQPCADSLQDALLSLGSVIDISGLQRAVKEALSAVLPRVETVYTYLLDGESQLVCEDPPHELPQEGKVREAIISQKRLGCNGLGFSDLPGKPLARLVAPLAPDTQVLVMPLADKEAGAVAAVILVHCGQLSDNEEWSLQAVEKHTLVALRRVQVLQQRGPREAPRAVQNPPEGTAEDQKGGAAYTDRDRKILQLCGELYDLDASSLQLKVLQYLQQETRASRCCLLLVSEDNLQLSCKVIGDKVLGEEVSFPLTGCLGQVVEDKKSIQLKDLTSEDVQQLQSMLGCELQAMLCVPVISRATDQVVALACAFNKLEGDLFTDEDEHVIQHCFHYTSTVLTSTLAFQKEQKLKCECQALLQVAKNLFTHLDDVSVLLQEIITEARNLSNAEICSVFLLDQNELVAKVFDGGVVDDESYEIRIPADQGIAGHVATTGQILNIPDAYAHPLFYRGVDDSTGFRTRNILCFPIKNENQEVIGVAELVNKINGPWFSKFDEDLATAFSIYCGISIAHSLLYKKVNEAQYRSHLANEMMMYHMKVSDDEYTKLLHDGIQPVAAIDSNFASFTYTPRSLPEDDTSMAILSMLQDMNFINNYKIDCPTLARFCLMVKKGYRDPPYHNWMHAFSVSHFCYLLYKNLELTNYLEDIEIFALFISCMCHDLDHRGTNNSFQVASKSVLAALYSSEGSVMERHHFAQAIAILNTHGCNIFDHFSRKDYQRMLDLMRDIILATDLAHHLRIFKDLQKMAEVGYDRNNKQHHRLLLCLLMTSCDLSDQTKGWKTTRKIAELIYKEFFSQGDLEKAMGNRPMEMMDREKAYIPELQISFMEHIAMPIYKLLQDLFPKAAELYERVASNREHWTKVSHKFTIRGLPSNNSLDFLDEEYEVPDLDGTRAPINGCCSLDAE
Protocol: (§6) The enzymatic activity of recombinant PDE or PDE activities in cell lysates were measured using the IMAP fluorescence polarization (FP) PDE assay (Molecular Devices) as previously described. PDE10 inhibitors and DMSO as the vehicle were added to assay buffer 10 minutes before the incubation with the enzyme reaction. Fluorescence polarization values were measured using Synergy H4 Hybrid Reader (BioTek).

[16] = molecular target: PDE3A (Homo sapiens, UniProt Q14432); test: as above; format: biochemical
Sequence of PDE3A (Q14432 whole entry): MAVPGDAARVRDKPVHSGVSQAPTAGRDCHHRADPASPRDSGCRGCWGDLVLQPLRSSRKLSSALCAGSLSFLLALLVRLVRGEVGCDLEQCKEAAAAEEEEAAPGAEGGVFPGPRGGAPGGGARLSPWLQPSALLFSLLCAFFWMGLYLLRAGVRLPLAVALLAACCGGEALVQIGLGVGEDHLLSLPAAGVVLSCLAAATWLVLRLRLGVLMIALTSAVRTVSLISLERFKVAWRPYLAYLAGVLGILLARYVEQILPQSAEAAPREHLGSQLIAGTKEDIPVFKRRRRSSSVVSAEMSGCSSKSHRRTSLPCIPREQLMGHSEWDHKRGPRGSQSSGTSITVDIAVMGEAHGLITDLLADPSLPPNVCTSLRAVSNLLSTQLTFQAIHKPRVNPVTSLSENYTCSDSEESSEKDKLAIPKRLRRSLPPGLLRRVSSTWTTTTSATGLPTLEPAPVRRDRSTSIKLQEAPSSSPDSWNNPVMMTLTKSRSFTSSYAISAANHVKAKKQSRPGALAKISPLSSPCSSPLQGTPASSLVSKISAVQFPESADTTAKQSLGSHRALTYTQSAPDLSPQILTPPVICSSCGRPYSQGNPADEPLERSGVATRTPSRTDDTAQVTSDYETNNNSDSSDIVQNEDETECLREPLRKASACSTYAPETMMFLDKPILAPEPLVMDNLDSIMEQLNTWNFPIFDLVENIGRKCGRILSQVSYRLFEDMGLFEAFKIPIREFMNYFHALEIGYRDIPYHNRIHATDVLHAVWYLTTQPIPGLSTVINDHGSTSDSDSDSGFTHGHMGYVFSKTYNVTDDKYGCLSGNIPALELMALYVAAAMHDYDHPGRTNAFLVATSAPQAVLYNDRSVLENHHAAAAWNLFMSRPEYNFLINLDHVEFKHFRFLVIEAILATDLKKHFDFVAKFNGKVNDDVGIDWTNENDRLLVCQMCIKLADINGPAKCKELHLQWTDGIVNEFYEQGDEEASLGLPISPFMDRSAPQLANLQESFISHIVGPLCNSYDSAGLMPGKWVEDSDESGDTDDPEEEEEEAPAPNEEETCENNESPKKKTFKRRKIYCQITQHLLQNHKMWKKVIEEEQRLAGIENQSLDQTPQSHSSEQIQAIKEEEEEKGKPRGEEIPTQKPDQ
Protocol: as §6

[17] = molecular target: PDE4B (Homo sapiens, UniProt Q07343); test: as above; format: biochemical; settings: substrate cAMP; read-out: IC50 of PQ10 cAMP
Protocol: as §6

[18] = molecular target: PDE10A (Homo sapiens, UniProt Q9Y233); test: as above; format: biochemical
Sequence of PDE10A (Q9Y233 718-1035 limits assumed): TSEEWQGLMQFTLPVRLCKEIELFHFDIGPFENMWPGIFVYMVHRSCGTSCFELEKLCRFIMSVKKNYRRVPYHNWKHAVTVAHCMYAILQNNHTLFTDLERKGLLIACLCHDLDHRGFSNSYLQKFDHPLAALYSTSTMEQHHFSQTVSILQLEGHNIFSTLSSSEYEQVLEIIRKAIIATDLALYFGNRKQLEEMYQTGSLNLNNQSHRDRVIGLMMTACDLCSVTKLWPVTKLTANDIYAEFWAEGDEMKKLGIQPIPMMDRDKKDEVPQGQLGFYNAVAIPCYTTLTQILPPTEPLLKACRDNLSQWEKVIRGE
Protocol: as §6

[19] = molecular target: PDE5A (Homo sapiens, UniProt O76074); test: as above; format: biochemical; settings: substrate cGMP; read-out: IC50 of PQ10 cGMP
Protocol: as §6

[20] = molecular target: PDE11A (Homo sapiens, UniProt Q9HCR9); test: as above; format: biochemical
Sequence of PDE11A (Q9HCR9 whole entry): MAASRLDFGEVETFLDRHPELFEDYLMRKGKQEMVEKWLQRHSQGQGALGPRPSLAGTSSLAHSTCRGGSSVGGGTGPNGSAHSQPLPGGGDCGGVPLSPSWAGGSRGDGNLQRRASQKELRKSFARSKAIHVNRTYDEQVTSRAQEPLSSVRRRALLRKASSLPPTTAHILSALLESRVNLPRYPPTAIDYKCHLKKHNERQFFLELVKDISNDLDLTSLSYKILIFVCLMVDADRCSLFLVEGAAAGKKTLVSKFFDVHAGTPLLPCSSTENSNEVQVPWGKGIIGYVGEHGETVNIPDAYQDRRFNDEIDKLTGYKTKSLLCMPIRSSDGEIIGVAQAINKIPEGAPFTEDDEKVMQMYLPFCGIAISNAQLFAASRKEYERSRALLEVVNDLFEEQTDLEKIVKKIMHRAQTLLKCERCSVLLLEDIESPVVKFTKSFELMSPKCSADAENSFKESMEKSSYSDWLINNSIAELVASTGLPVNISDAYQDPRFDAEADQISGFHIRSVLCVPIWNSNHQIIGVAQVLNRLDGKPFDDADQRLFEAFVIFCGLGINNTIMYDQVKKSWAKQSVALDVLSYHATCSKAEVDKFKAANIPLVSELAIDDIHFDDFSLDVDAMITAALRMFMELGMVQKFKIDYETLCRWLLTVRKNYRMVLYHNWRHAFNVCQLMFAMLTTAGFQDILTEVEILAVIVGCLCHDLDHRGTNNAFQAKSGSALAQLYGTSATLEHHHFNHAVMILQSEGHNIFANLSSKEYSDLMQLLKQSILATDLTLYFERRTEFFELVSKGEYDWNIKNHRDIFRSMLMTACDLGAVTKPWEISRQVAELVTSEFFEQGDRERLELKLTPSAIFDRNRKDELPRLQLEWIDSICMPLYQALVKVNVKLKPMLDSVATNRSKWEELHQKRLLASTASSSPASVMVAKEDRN
Protocol: as §6

[21] = molecular target: PDE1A (Homo sapiens, UniProt P54750); test: as above; format: biochemical
Sequence of PDE1A (P54750 whole entry): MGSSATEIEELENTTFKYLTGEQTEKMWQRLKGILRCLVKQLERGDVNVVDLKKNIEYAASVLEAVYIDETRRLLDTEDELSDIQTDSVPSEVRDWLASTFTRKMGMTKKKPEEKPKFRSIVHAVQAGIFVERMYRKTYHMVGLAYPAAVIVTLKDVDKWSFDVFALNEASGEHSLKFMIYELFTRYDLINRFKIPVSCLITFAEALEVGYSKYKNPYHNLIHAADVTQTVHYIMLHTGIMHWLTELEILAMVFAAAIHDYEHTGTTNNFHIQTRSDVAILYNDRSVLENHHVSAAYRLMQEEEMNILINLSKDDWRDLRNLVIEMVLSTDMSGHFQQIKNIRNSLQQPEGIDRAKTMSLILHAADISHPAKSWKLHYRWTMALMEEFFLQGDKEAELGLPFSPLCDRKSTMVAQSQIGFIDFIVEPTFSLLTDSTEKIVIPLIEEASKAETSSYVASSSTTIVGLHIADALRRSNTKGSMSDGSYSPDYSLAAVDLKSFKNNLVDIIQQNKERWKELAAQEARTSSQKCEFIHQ
Protocol: as §6

[22] = molecular target: PDE8A (Homo sapiens, UniProt O60658); test: as above; format: biochemical; set-up: key: Inactive: >100 µmol/L shows no inhibition; settings: substrate cAMP
Protocol: as §6

[23] = tested on: PDE6A/B; test: as above; format: biochemical; set-up: key: Inactive: >100 µmol/L shows no inhibition; settings: substrate cGMP
Protocol: as §6

[24] = molecular target: PDE7A (Homo sapiens, UniProt Q13946); test: as above; format: biochemical; set-up: key: Inactive: >100 µmol/L shows no inhibition; settings: substrate cAMP
Sequence of PDE7A (Q13946 whole entry): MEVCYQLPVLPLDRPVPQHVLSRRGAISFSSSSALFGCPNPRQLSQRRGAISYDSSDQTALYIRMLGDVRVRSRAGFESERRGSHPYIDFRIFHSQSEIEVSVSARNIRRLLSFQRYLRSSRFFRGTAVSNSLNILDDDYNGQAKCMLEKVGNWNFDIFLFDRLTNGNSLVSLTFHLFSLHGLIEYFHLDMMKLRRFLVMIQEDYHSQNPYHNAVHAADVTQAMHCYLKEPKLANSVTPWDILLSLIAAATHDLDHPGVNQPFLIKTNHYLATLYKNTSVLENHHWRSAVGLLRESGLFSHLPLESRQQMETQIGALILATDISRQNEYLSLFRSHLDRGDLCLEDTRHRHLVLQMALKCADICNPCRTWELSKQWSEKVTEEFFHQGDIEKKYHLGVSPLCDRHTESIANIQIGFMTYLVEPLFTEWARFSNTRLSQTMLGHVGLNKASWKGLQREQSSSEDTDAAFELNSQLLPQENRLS
Protocol: as §6

[25] = molecular target: PDE9A (Homo sapiens, UniProt O76083); test: as above; format: biochemical; set-up: key: Inactive: >100 µmol/L shows no inhibition; settings: substrate cGMP
Sequence of PDE9A (O76083 whole entry): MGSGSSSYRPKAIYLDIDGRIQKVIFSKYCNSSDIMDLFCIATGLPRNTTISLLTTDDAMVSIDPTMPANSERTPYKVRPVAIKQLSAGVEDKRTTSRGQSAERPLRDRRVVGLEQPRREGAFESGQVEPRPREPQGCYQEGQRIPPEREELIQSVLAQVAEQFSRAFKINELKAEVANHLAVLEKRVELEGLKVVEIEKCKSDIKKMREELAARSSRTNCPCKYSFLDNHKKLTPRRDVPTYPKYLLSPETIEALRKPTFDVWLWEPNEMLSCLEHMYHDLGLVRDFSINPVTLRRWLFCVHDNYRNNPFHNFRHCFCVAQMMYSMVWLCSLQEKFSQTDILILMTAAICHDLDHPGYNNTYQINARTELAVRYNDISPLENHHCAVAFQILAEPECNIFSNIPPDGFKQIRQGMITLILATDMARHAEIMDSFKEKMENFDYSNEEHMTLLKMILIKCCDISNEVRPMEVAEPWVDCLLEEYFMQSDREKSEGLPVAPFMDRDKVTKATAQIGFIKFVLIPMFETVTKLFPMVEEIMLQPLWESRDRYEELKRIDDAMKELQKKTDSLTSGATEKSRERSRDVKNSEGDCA
Protocol: as §6

[26] = tested on: β-catenin in H1299 cells; test: Western blotting, β-catenin phosphorylation; format: cell-based, human; settings: H1299 cells
Protocol: as §5

[27] = tested on: H1299 cells; test: Growth assay (Cell Titer Glo); format: cell-based, human
Protocol: as §1, §2

[28] = tested on: cleaved PARP and caspase 3 in H1299 cells; test: Western blotting, cleaved PARP and caspase 3 (apoptosis); format: cell-based, human; settings: H1299 cells
Protocol: as §5

[29] = tested on: intracellular cGMP levels in H1299 cells; test: cGMP biosensor assay (luciferase); format: cell-based, human; settings: for EC50: Homo sapiens, NCI-H1299, H1299 biosensor cells, read-out: EC50 to induce cGMP elevation; for effect on luminescence values in biosensor assay: H1299, CNP 100 nmol/L, sildenafil 1 µmol/L, IBMX 100 µmol/L
Protocol: (§7) Stable cell lines with an expression of luciferase-based cGMP biosensor were established from H1299 NSCLC cells and HEK293 cells using a genetically encoded GAF-Luc construct (Promega), containing a cGMP-specific binding domain from human PDE5A GAF-A domain fused to modified firefly luciferase (35). Cells were pre-incubated at room temperature in CO2 independent media supplemented with 10% FBS and 5 mmol/L luciferin. For the measurement of intracellular cGMP levels, sodium nitroprusside (SNP) or C-type natriuretic peptide (CNP) in combination with PDE inhibitors were added to initiate the experiment and the increased luminescence values in live cells were detected constantly over a period time of 2 hours.

[30] = tested on: intracellular cGMP levels in HEK293 cells; test: cGMP biosensor assay (luciferase); format: cell-based, human
Protocol: as §7

[31] = tested on: H1975 cells; test: Growth assay (Cell Titer Glo); format: cell-based; settings: Homo sapiens, NCI-H1975; H1975, 72 hours, 5% serum; read-out: Growth inhibition IC50
Protocol: as §1, §2

[32] = tested on: normal human airway epithelial cells (NHAECs); test: Growth assay (Cell Titer Glo); format: cell-based
Protocol: as §1, §2

[33] = tested on: MAPK signaling in H1299 cells; test: Western blotting, RAF/MAPK signaling; format: cell-based, human
Protocol: as §5

[34] = substrate cAMP, read-out: IC50 of PQ10 cAMP
[35] = substrate cGMP, read-out: IC50 of PQ10 cGMP

With Cn1cc(-c2ccncc2)c(-c2ccc(OCc3ccc4ccccc4n3)cc2)n1 [Pf-2545920] the IC50 [1] was 22.9 µM, the IC50 [2] was 21.4 µM and the IC50 [3] was 25.8 µM. The IC50 [4] was 20 µM, the IC50 [5] was 15.8 µM and the IC50 [6] was 18.6 µM. It also gave an IC50 [7] of 15.2 µM, an IC50 [8] of 18.1 µM and an IC50 [9] of 21.1 µM.
With COc1cc2ncnc(N3CC[C@@H](Oc4cnc5ccccc5n4)C3)c2cc1OC [PQ10] the “reduction of colony formation” value ([10]; 0.1 µmol/L, HOP62 vector control cells) was 54.4%, the IC50 ([10]; Homo sapiens, HOP-62, 336 h, HOP62 shCTL, 14 days of treatment) was 0.098 µM and the “reduction of colony formation” value ([11]; 0.1 µmol/L, PDE10 knockdown HOP62 cells) was 12.3%. For the same molecule, the IC50 ([11]; Homo sapiens, HOP-62, 336 h, HOP62 shPDE10, 14 days of treatment) was 0.172 µM, the “time to increase in pSer239-VASP levels” value [12] was no more than 30 minutes and the “maximum reduction of viable cell number” value ([13]; 3 days of treatment) was “greater than 75%”. For the same molecule, the IC50 ([13]; Homo sapiens, 72 h, read-out: Growth inhibition IC50 values, range over human lung tumor cells) was 0.32 to 1.69 µM, the “sensitivity of PDE10 knockdown HOP62 cells in growth assay” value [14] was “appreciably less sensitive” and the IC50 [15, 34] was 7 µM. For the same molecule, the IC50 [15, 35] was 3.7 µM, the IC50 [16, 34] was 0.47 µM and the IC50 [16, 35] was 0.32 µM. The IC50 [17] was 17.8 µM, the IC50 [18, 34] was 0.013 µM and the IC50 [18, 35] was 0.005 µM. For the same molecule, the IC50 [19] was 1.8 µM, the IC50 [20, 34] was 30.1 µM and the IC50 [20, 35] was 13.2 µM. The IC50 [21, 34] was 29.2 µM, the IC50 [21, 35] was 8.8 µM and the “IC50 of PQ10 cAMP” value [22] was “Inactive”. For the same molecule, the “IC50 of PQ10 cGMP” value [23] was “Inactive”, the “IC50 of PQ10 cAMP” value [24] was “Inactive” and the “IC50 of PQ10 cGMP” value [25] was “Inactive”. For the same molecule, the “phosphorylation level of β-catenin at pSer675” value [26] was “no change”, the “phosphorylation of β-catenin at pSer552” value ([26]; concentration-dependent, 0.5-1 hour) was “increased the phosphorylation” and the IC50 ([27]; Homo sapiens, NCI-H1299, H1299, 72 hours, 5% serum, read-out: Growth inhibition IC50) was 1.69 µM. For the same molecule, the IC50 [1] was 1.01 µM, the “growth of vector control HOP62 cells” value ([1]; shCTL, PQ10 2 µmol/L) was “effectively inhibited” and the “lowest concentration increasing cleaved PARP and caspase 3” value ([28]; 24 hours of treatment) was 0.1 µmol/L. For the same molecule, the “concentration of maximum effect on cleaved PARP and caspase 3” value ([28]; 48 hours of treatment) was 5 µmol/L, the “time to increase in cGMP levels” value ([29]; H1299 biosensor cells, sustained to 2 hours) was no more than 1 h and the EC50 ([29]; CNP (100 nmol/L) stimulation) was 1.31 µM. The EC50 ([29]; SNP (100 µmol/L) stimulation) was 1.72 µM, the EC50 ([30]; Homo sapiens, HEK293 biosensor cells, SNP (100 µmol/L) stimulation, read-out: EC50 to induce cGMP elevation) was 5.67 µM and the “EC50 fold higher in HEK293 than in H1299 biosensor cells” value ([30]; SNP (100 µmol/L)) was “about 3.3 fold”. For the same molecule, the IC50 [31] was 1.27 µM, the IC50 ([32]; Homo sapiens, Epithelial cell, NHAEC, 72 hours, 5% serum, read-out: Growth inhibition IC50) was 17.3 µM and the “fold less sensitive to PQ10 treatment (NHAECs vs lung tumor cells)” value ([32]; growth assays under identical conditions) was no more than 50 fold. The IC50 [5] was 0.54 µM, the IC50 [7] was 0.32 µM and the “MAPK signaling, ERK1/2 (p42/44) phosphorylation at T202/Y204” value [33] was “concentration- and time-dependent inhibition”. The “phosphorylation of c-RAF at serine 338 and serine 259” value [33] was “did not affect”.
With CC(C)Cn1c(=O)n(C)c(=O)c2[nH]cnc21 [IBMX] the “effect on luminescence values in biosensor assay” value [29] was “increased luminescence levels”.
CCCc1nn(C)c2c(=O)[nH]c(-c3cc(S(=O)(=O)N4CCN(C)CC4)ccc3OCC)nc12 [Sildenafil, sildenafil] was tested, and the “effect on growth of H1299 cells” value ([27]; not shown) was “no effect” and the “effect on luminescence values in biosensor assay” value [29] was “did not affect luminescence values”.
